The values that follow come from PubChem BioAssay AID248 (DTP/NCI, 2004).

This assay relates to L1210 leukemia ip in BDF1 mice, survival T/C. Description: NCI In Vivo Anticancer Drug Screen. Data for tumor model L1210 Leukemia (intraperitoneal) in B6D2F1 (BDF1) mice. Conditions: endpoint: mean survival time, higher = longer survival. Summed up: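 Mice bearing the transplanted tumor received compound or vehicle. Survival of the treated group was divided by that of the vehicle-treated control group to give the ratio.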

Where [1] appears, read: dose: 100.0 mg/kg/injection, schedule: Q01DX001 (ip), vehicle: carboxymethylcellulose (CMC).
Setting [2] is: dose: 200.0 mg/kg/injection, schedule: Q01DX001 (ip), vehicle: carboxymethylcellulose (CMC).
Where [3] appears, read: dose: 50.0 mg/kg/injection, schedule: Q01DX001 (ip), vehicle: carboxymethylcellulose (CMC).
[4] abbreviates: dose: 100.0 mg/kg/injection, schedule: Q01DX001 (ip), vehicle: saline.
The mark [5] stands for this setting: dose: 100.0 mg/kg/injection, schedule: Q04DX003 (ip), vehicle: saline with Tween-80.
Where [6] appears, read: dose: 200.0 mg/kg/injection, schedule: Q04DX003 (ip), vehicle: saline with Tween-80.
Where [7] appears, read: dose: 10.0 mg/kg/injection, schedule: Q01DX001 (ip), vehicle: saline.
Where [8] appears, read: dose: 20.0 mg/kg/injection, schedule: Q01DX001 (ip), vehicle: saline.
The mark [9] stands for this setting: dose: 25.0 mg/kg/injection, schedule: Q01DX009 (ip), vehicle: saline.
[10] abbreviates: dose: 25.0 mg/kg/injection, schedule: Q04DX003 (ip), vehicle: saline.
Where [11] appears, read: dose: 50.0 mg/kg/injection, schedule: Q01DX009 (ip), vehicle: saline.
[12] abbreviates: dose: 50.0 mg/kg/injection, schedule: Q04DX003 (ip), vehicle: saline.
The mark [13] stands for this setting: dose: 100.0 mg/kg/injection, schedule: Q01DX009 (ip), vehicle: saline.
Where [14] appears, read: dose: 100.0 mg/kg/injection, schedule: Q04DX003 (ip), vehicle: saline.

“And” between values parts separate entries of the source, which are not always exact repeats. Equal values may be shown once. Toxic doses and inconclusive results are not listed.

As to `CCOP(=S)(N/N=C\C(C)(C)C1CCCCC1)OCC`, the T/C runs as follows: under setting [1], 94 % of control; under setting [2], 91 % of control; (dose: 400.0 mg/kg/injection, schedule: Q01DX001 (ip), vehicle: carboxymethylcellulose (CMC)) 98 % of control.
As to `Nc1ncnc2c(C3OC(CO)C(O)C3O)[nH]nc12` (stereo not drawn), the T/C runs as follows: (dose: 5.0 mg/kg/injection, schedule: Q01DX015 (ip), vehicle: carboxymethylcellulose (CMC)) 95 % of control; (dose: 10.0 mg/kg/injection, schedule: Q01DX015 (ip), vehicle: carboxymethylcellulose (CMC)) 109 % of control; (dose: 12.5 mg/kg/injection, schedule: Q01DX009 (ip), vehicle: saline with Tween-80) 119 % of control; (dose: 20.0 mg/kg/injection, schedule: Q01DX015 (ip), vehicle: carboxymethylcellulose (CMC)) 111 % of control; (dose: 25.0 mg/kg/injection, schedule: Q01DX009 (ip), vehicle: saline with Tween-80) 98 % of control; under setting [3], 109 % of control. For the same compound, the T/C was 111 % of control under setting [1]; 108 % of control under setting [4]; 114 % of control under setting [5]; 100 % of control and 117 % of control (dose: 133.0 mg/kg/injection, schedule: Q04DX003 (ip), vehicle: saline with Tween-80); 115 % of control under setting [2]; 111 % of control under setting [6]. For the same compound, the T/C (dose: 300.0 mg/kg/injection, schedule: Q04DX003 (ip), vehicle: saline with Tween-80) is 88 % of control.
As for `CNCCOC(c1ccccc1)c1ccccc1C` (stereo not drawn), the T/C by setting is: (dose: 3.12 mg/kg/injection, schedule: Q01DX009 (ip), vehicle: saline) 107 % of control; (dose: 5.0 mg/kg/injection, schedule: Q01DX001 (ip), vehicle: saline) 103 % of control; (dose: 6.25 mg/kg/injection, schedule: Q01DX009 (ip), vehicle: saline) 96 % of control; under setting [7], 100 % of control; (dose: 12.5 mg/kg/injection, schedule: Q01DX009 (ip), vehicle: saline) 101 % of control; under setting [8], 105 % of control. For the same compound, the T/C is, setting by setting: under setting [9], 101 % of control; under setting [10], 94 % of control; (dose: 40.0 mg/kg/injection, schedule: Q01DX001 (ip), vehicle: saline) 100 % of control; under setting [11], 106 % of control; under setting [12], 108 % of control; (dose: 80.0 mg/kg/injection, schedule: Q01DX001 (ip), vehicle: saline) 103 % of control.
As for `O=c1c(CO)c[nH]cc1CO`, the T/C is, setting by setting: under setting [4], 101 % of control; (dose: 200.0 mg/kg/injection, schedule: Q01DX001 (ip), vehicle: saline) 103 % of control; (dose: 400.0 mg/kg/injection, schedule: Q01DX001 (ip), vehicle: saline) 107 % of control.
`COc1ccc(N=C=Nc2ccc(OC)cc2)cc1`: the T/C by setting is: (dose: 12.0 mg/kg/injection, schedule: Q01DX009 (ip), vehicle: Klucel (hydroxypropylcellulose) (HPC)) 101 % of control; (dose: 25.0 mg/kg/injection, schedule: Q01DX009 (ip), vehicle: Klucel (hydroxypropylcellulose) (HPC)) 108 % of control; (dose: 25.0 mg/kg/injection, schedule: Q04DX003 (ip), vehicle: Klucel (hydroxypropylcellulose) (HPC)) 96 % of control; (dose: 50.0 mg/kg/injection, schedule: Q01DX009 (ip), vehicle: Klucel (hydroxypropylcellulose) (HPC)) 90 % of control; (dose: 50.0 mg/kg/injection, schedule: Q04DX003 (ip), vehicle: Klucel (hydroxypropylcellulose) (HPC)) 93 % of control; (dose: 100.0 mg/kg/injection, schedule: Q04DX003 (ip), vehicle: Klucel (hydroxypropylcellulose) (HPC)) 98 % of control.
For the compound `CC1C(=O)OC2CC[N+]3(C(C)C)CC=C(COC(=O)C(C)(O)C1(C)O)C23` (stereo not drawn), the T/C by setting is: under setting [11], 100 % of control; under setting [13], 106 % of control; (dose: 200.0 mg/kg/injection, schedule: Q01DX009 (ip), vehicle: saline) 106 % of control.
As to `Nc1ccc2c(c1)Cc1c(F)ccc(F)c1-2`, the T/C is 107 % of control under setting [3], 102 % of control under setting [1] and 109 % of control under setting [2].
Turning to `CCCN1CCCC(OC(=O)N(C)C)C1` (stereo not drawn), the T/C is 86 % of control (dose: 100.0 mg/kg/injection, schedule: Q04DX002 (ip), vehicle: Klucel (hydroxypropylcellulose) (HPC)) and 104 % of control (dose: 200.0 mg/kg/injection, schedule: Q04DX002 (ip), vehicle: Klucel (hydroxypropylcellulose) (HPC)).
For the compound `O=C1C=C(c2ccccc2)C(Cl)(c2ccccc2)C1` (stereo not drawn), the T/C is 104 % of control (dose: 100.0 mg/kg/injection, schedule: Q01DX001 (ip), vehicle: saline with Tween-80); 96 % of control (dose: 200.0 mg/kg/injection, schedule: Q01DX001 (ip), vehicle: saline with Tween-80); 89 % of control (dose: 400.0 mg/kg/injection, schedule: Q01DX001 (ip), vehicle: saline with Tween-80).
`CCC[As](=O)(O)C(C)C`: the T/C under setting [14] was 97 % of control.
For the compound `C(=N\NC1=NCCN1)/c1ccccc1`, the T/C runs as follows: (dose: 2.5 mg/kg/injection, schedule: Q01DX009 (ip), vehicle: saline) 101 % of control; (dose: 5.0 mg/kg/injection, schedule: Q01DX009 (ip), vehicle: saline) 97 % of control; (dose: 5.0 mg/kg/injection, schedule: Q04DX003 (ip), vehicle: saline) 97 % of control; under setting [7], 105 % of control; (dose: 10.0 mg/kg/injection, schedule: Q01DX009 (ip), vehicle: saline) 93 % of control; (dose: 10.0 mg/kg/injection, schedule: Q04DX003 (ip), vehicle: saline) 94 % of control. In addition, the T/C under setting [8] was 104 % of control and the T/C (dose: 20.0 mg/kg/injection, schedule: Q04DX003 (ip), vehicle: saline) is 97 % of control.
In the case of `CCCCCCC(=O)/C=C/c1ccc(Cl)cc1`, the T/C reads like this: (dose: 100.0 mg/kg/injection, schedule: Q01DX009 (ip), vehicle: acetone) 93 % of control; under setting [5], 96 % of control; (dose: 200.0 mg/kg/injection, schedule: Q01DX009 (ip), vehicle: acetone) 90 % of control; under setting [6], 98 % of control; (dose: 400.0 mg/kg/injection, schedule: Q01DX009 (ip), vehicle: acetone) 92 % of control; (dose: 400.0 mg/kg/injection, schedule: Q04DX003 (ip), vehicle: saline with Tween-80) 93 % of control.
In the case of `O=C1OC(c2ccccc2)=N/C1=C\c1ccc2c(c1)OCO2`, the T/C was 95 % of control under setting [1] and 98 % of control under setting [2].
Take `CCOC(=O)C1(N)CCCC1`: the T/C is 105 % of control (dose: 15.0 mg/kg/injection, schedule: Q01DX Z (ip), vehicle: carboxymethylcellulose (CMC)); 108 % of control (dose: 23.0 mg/kg/injection, schedule: Q01DX Z (ip), vehicle: carboxymethylcellulose (CMC)); 96 % of control (dose: 31.3 mg/kg/injection, schedule: Q01DX015 (ip), vehicle: saline); 117 % of control (dose: 35.0 mg/kg/injection, schedule: Q01DX Z (ip), vehicle: carboxymethylcellulose (CMC)); 124 % of control (dose: 62.5 mg/kg/injection, schedule: Q01DX015 (ip), vehicle: saline); 122 % of control (dose: 83.0 mg/kg/injection, schedule: Q01DX Z (ip), vehicle: carboxymethylcellulose (CMC)). For the same compound, the T/C is, setting by setting: (dose: 125.0 mg/kg/injection, schedule: Q01DX015 (ip), vehicle: saline) 150 % of control; (dose: 125.0 mg/kg/injection, schedule: Q01DX Z (ip), vehicle: carboxymethylcellulose (CMC)) 122 % of control; (dose: 188.0 mg/kg/injection, schedule: Q01DX Z (ip), vehicle: carboxymethylcellulose (CMC)) 110 % of control; (dose: 250.0 mg/kg/injection, schedule: Q01DX015 (ip), vehicle: saline) 157 % of control; (dose: 500.0 mg/kg/injection, schedule: Q01DX015 (ip), vehicle: saline) 118 % of control.
With `COC(=O)c1ccc[n+](CCc2ccc(OC)c(OC)c2)c1`, where the note is “dose: 75.0 mg/kg/injection, schedule: Q01DX001 (ip), vehicle: saline”, the T/C was 111 % of control.
Consider `O=S1(=O)CCCCO1`, for which the T/C was 97 % of control under setting [9]; 102 % of control under setting [10]; 101 % of control under setting [11]; 102 % of control under setting [12]; 89 % of control under setting [13]; 98 % of control under setting [14].
